Activity calls are given as the source filed them. Cut-off read from the data, not from the text of the source, for most assays here: actives have a measured EC50 and inactives only a lower limit.
Tests used:
[1] = viability of uninfected HEp-2 cells – cell-based, HTS, cytotoxicity control for RSV inhibitor project, dose response (AID 2410); assay type: functional; details: human respiratory syncytial virus
[2] = luciferase reporter signal suppression in cells – H4 neuroglioma cells, luminescence, dose response (AID 1990); assay type: functional, cell-based
[3] = Luminescence Cell-Based Dose Response HTS to Identify Inhibitors of 5'UTR Stem-Loop Driven Prion Protein mRNA Translation in H4 Neuroglioblastoma Cells. [Related pubchem assays: 1827 (Project Summary), 1813 (Primary HTS)]; assay type: functional
[4] = alpha-synuclein stem-loop luciferase translation blockers – H4 neuroglioma cells, luminescence, confirmation (AID 1988); assay type: functional, cell-based
Streptokinase A = biological target: T1, Streptokinase A (Streptococcus pyogenes serotype M1, UniProt P10520); experiment: viability-normalized secreted streptokinase activity reduction – plasminogen activation absorbance, OD405, dose response (AID 1914); assay type: functional, Streptococcus pyogenes M1 GAS;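 note: secreted streptokinase activity via plasminogen activation per viability signal from cell pellet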
T1 sequence (P10520 whole entry): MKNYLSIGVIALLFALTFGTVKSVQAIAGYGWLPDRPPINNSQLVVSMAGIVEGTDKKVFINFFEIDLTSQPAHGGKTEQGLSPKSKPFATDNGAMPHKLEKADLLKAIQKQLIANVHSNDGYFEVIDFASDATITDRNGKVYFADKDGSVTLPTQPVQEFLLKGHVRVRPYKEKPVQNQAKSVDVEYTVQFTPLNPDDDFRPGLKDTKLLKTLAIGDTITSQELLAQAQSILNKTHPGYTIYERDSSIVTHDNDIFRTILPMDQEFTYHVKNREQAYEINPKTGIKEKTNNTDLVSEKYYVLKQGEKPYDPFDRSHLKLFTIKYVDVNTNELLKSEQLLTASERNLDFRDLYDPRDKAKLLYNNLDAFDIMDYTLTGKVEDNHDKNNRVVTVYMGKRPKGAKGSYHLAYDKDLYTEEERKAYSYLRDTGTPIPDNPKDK

Streptococcus = experiment: GAS UMAA2166 growth inhibition – luminescence, BacTiterGlo, counter-screen for streptokinase expression inhibitor project, dose response (AID 1915); assay type: functional, organism-based;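 note: potency for reduction of bacterial viability or growth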
[5] = test system: Streptococcus sp. 'group A'; experiment: Streptococcus pyogenes SK(-)GAS viability under kanamycin – luminescence, BacTiterGlo, confirmation, counter-screen for streptokinase expression inhibitor project, dose response (AID 1900); assay type: functional, organism-based
H4 = experiment: Luminescence Cell-Based Dose Response HTS to Identify Activators of 5'UTR Stem-Loop Driven Prion Protein mRNA Translation in H4 Neuroglioblastoma Cells. [Related pubchem assays: 1829 (Project Summary), 1814 (Primary HTS)]; assay type: functional; details: Homo sapiens
[6] = Luminescence Cell-Based Dose Response HTS to Identify Activators of Luciferase Translation or Activity in H4 […] Cells. [Related pubchem assays: 1829 (Project Summary), 1814 (Primary HTS)]; assay type: functional
Cytochrome P450 3A4 = Cytochrome P450 3A4 (Homo sapiens, UniProt P08684);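 note: CYP3A4 tested as one member of a cytochrome P450 panel screen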
Chain of Cytochrome P450 3A4 (P08684 whole entry): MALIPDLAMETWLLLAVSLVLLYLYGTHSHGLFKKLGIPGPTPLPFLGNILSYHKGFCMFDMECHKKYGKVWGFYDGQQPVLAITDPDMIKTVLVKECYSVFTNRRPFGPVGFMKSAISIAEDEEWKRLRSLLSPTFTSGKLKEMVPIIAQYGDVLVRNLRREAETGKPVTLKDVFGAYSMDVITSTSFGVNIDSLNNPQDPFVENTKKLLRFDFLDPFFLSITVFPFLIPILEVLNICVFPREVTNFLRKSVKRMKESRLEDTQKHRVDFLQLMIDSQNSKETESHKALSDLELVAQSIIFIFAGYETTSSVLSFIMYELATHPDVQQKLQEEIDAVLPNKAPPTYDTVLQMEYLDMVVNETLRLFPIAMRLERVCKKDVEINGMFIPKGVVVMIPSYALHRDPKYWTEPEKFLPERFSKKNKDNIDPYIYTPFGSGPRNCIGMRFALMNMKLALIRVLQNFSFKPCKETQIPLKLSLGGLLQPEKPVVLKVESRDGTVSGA

Cytochrome P450 1A2 = biological target: T2, Cytochrome P450 1A2 (Homo sapiens, UniProt P05177);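 note: PubChem cytochrome P450 panel assay, CYP1A2 panel member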
T2 sequence (P05177 whole entry): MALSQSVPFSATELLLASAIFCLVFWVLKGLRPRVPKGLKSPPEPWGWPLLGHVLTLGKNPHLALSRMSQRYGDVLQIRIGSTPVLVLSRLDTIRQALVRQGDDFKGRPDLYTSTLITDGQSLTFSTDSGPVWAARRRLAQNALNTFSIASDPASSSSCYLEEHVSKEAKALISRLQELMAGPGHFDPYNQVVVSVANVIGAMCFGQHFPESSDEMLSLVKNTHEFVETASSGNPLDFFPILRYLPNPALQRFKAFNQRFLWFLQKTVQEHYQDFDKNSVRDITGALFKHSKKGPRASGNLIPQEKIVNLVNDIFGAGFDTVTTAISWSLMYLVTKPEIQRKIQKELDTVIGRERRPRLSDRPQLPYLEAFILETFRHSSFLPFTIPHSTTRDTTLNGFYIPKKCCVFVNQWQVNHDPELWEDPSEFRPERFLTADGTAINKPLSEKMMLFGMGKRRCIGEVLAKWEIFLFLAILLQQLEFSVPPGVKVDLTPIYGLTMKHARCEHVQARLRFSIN

[7] = Luminescence Cell-Based Dose Retest to Confirm Inhibitors of Cancer Stem Cells. [Related pubchem assays (depositor defined):AID2717, AID2721]; assay type: functional; details: Homo sapiens
[8] = NIH3T3 cell viability loss – ATP luminescence, mouse fibroblasts, counter-screen, dose response (AID 2010); assay type: functional, cell-based;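 note: cells exposed to compound for about 90 hours before reading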
[9] = Trypanosoma cruzi growth suppression in host cells – NIH3T3 host cells, beta-gal luminescence, confirmation (AID 2044); assay type: functional, cell-based;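 note: intracellular parasites grown in NIH/3T3 mouse fibroblasts as host cells; luminescent beta-galactosidase reporter signal from transgenic T. cruzi replicating inside host cells; inhibitors lower the luminescence signal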
[10] = biological target: T3, Corticotropin-releasing factor receptor 2/Corticotropin-releasing factor-binding protein (Homo sapiens, UniProt P24387+Q13324); experiment: activators of CRF receptor 2 with binding protein – uHTS hits, confirmation (AID 602473); assay type: functional; details: read-out: EC50_Mean
T3 sequence (Q13324 whole entry): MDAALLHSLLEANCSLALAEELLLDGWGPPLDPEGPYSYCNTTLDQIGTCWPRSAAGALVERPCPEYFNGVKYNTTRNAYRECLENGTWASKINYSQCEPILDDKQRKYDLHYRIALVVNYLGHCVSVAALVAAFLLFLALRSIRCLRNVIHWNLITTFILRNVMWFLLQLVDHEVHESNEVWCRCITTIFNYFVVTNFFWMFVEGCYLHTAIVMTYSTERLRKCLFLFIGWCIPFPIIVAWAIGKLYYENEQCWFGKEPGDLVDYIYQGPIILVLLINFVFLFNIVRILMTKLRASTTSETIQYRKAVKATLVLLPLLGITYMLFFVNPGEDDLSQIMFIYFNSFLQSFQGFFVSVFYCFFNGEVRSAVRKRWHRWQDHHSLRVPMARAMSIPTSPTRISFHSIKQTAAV
T3 sequence (P24387 whole entry): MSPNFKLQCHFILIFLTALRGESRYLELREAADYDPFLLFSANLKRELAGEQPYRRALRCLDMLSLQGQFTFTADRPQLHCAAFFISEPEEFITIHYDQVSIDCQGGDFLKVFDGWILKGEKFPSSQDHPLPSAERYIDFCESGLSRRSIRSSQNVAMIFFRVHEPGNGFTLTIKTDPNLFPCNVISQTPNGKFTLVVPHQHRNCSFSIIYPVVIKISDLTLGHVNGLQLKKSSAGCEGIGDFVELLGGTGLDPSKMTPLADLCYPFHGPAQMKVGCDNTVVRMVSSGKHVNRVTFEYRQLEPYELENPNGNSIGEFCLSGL

INS1 = experiment: INS-1E survival protection against cytokine death – cell-based, luminescence, retest, dose response (AID 449756); assay type: functional; details: Rattus norvegicus;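 note: cell death triggered by IL-1 beta plus TNF-alpha plus IFN-gamma mixture; protective hits raise ATP signal compared with cytokine alone wells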

NC(=O)NNC1=Nc2cccc3cccc1c23
CC50 [1]: > 50 µM (active)

CCCN1C(=O)COc2ccc(-c3nnc(O)c4ccccc34)cc21
EC50 [2]: 22.7 µM (active) | EC50 [3]: > 120 µM (not active) | EC50 [4]: 30.9 µM (active)

COC(=O)c1cccc(NC(=S)NCc2ccc(Cl)cc2)c1
EC50 (Streptokinase A): > 150 µM (not active)

S=C(NCc1ccco1)N1CCN(c2nc(-c3ccc(Cl)cc3)cs2)CC1
EC50 (Streptococcus): 32.1 µM (active) | EC50 (Streptokinase A): 36.4 µM (active) | EC50 [5]: 9.38 µM (active)

CCn1nc([N+](=O)[O-])c2c(-c3nc4ccccc4o3)c(N)n(CCCOC)c2c1=O
EC50 [2]: > 120 µM (not active) | EC50 [3]: > 120 µM (not active) | EC50 [4]: > 120 µM (not active)

O=C(Nc1ccc(N2CCCCC2)cc1)C(Cl)c1ccccc1 (stereo unspecified)
EC50 (H4): 12.8 µM (active) | EC50 [6]: 125 nM (active)

CSc1cccc(NC(=O)OC2CCCCCCCCCCC2)c1
EC50 (Streptococcus): 10.8 µM (active) | EC50 (Streptokinase A): 2.93 µM (active) | EC50 [5]: 4.09 µM (active) | AC50 (Cytochrome P450 3A4): 3.16 µM (inconclusive) | AC50 (Cytochrome P450 1A2): 5.01 µM (inconclusive)

SC1=NC[C@H](CC2CCCCC2)N1CC1CCCCC1
EC50 (Streptococcus): 19.6 µM (active) | EC50 (Streptokinase A): 25.4 µM (active) | EC50 [5]: 12.6 µM (active)

S=C(Nc1cc(Cl)cc(Cl)c1)NC1CCN(Cc2ccccc2)CC1
EC50 [2]: > 120 µM (not active) | EC50 [3]: > 120 µM (not active) | EC50 [4]: 11.4 µM (active) | AC50 [7]: 5.23 µM (active)

CC(=O)c1cnc(SCC(=O)O)nc1C
EC50 [2]: > 120 µM (not active) | EC50 [3]: > 120 µM (not active) | EC50 [4]: > 120 µM (not active)

COc1ccc(C(=O)CSc2nc(-c3ccccn3)nc(C)c2Cl)cc1
EC50 (Streptococcus): 36.4 µM (active) | EC50 (Streptokinase A): > 150 µM (not active) | EC50 [5]: 7.92 µM (active)

Cc1cccc(NC(=S)/N=C(\N)Nc2nc(C)c3ccc(C)cc3n2)c1
EC50 (Streptococcus): > 150 µM (not active) | EC50 (Streptokinase A): > 150 µM (inconclusive) | EC50 [5]: 77.2 µM (active) | EC50 [8]: > 60 µM (not active) | EC50 [9]: 2.12 µM (active)

CCCCSc1nc2c(c(=O)n1CC)SC(C)C2 (stereo unspecified)
EC50 [2]: 15.3 µM (active) | EC50 [3]: > 60 µM (not active) | EC50 [4]: > 120 µM (not active)

CCNC(=O)Nc1ccccc1C(=O)OC
CC50 [1]: 27.7 µM (active)

COc1ccccc1OCC(=O)NNC(=S)NC(=O)c1ccco1
EC50 (Streptococcus): 41.4 µM (active) | EC50 (Streptokinase A): > 150 µM (not active) | EC50 [5]: 2.81 µM (active)

COc1cccc(N(C(=O)c2snc(C(N)=O)c2N)C(C(=O)NCc2ccccc2)c2ccc(O)cc2)c1 (stereo unspecified)
CC50 [1]: > 50 µM (active)

O=C(CC1CCCCC1)c1c(O)c2ccccc2oc1=O
EC50 (Streptococcus): 55 µM (active) | EC50 (Streptokinase A): > 150 µM (not active) | EC50 [10]: 7.06 µM (active) | EC50 [5]: 3.42 µM (active)

Cc1ccc(-c2ccnc3c(Cl)c(C)nn23)cc1
EC50 [2]: > 120 µM (not active) | EC50 [3]: > 120 µM (not active) | EC50 [4]: 13.7 µM (active)

Cn1nc(-c2ccccc2)c(CSc2cccc(Cl)c2)c1Cl
EC50 (Streptococcus): > 150 µM (not active) | EC50 (Streptokinase A): 19.8 µM (active)

Fc1ccccc1CNc1cc(Cl)cc(Cl)c1
EC50 (Streptococcus): 17.8 µM (active) | EC50 (Streptokinase A): > 150 µM (not active) | EC50 [5]: 9.65 µM (active)

CCn1nc(C)c(CN2CCc3c([nH]c4ccccc34)C2C(C)(C)C)c1C (stereo unspecified)
CC50 [1]: > 50 µM (active)

CCOC(=O)c1c(C)[nH]c(C(=O)Cn2c(=O)c3c(ncn3CC)n(Cc3ccccc3)c2=O)c1C
EC50 [2]: > 120 µM (not active) | EC50 [3]: > 120 µM (not active) | EC50 [4]: 17.2 µM (active)

O=C(Nc1ccc(N2CCOCC2)cc1)c1cc2c(s1)CCCC2
CC50 [1]: > 50 µM (active)

COc1ccc([C@H]2Oc3cc(O)cc(O)c3C(=O)C2[C@@H]2C(=O)c3c(O)cc(O)cc3O[C@@H]2c2ccc(OC)cc2)cc1 (stereo partly specified)
EC50 (Streptococcus): 2.42 µM (active) | EC50 (Streptokinase A): 1.7 µM (active) | EC50 [5]: 2.34 µM (active) | AC50 [7]: 7.4 µM (active)

COC(=O)C1=C(C)N(c2cc(C)cc(C)c2)/C(=C/c2ccc(O)cc2)C1=O
CC50 [1]: 18.4 µM (active)

CN(C)c1ccc(-c2cc([C@H]3[C@@H]4C=CCC[C@@]4(C)C(=O)N3Cc3ccccc3)ccc2F)cc1
CC50 [1]: 13.1 µM (active) | AC50 [7]: 2.28 µM (active)

N#C/C(=C\c1c[nH]c2ccc(Br)cc12)c1ccccn1
EC50 (Streptococcus): > 150 µM (not active) | EC50 (Streptokinase A): 51.6 µM (active) | EC50 [5]: 18.7 µM (active) | AC50 [7]: 2.25 µM (active)

O=C(NC1CCCCC1)NC1C2CC3CC(C2)CC1C3 (stereo unspecified)
EC50 (Streptococcus): > 150 µM (not active) | EC50 (Streptokinase A): > 150 µM (not active) | EC50 [5]: > 150 µM (not active)

CC/N=C1/S/C(=C\c2cn(CC(=O)NCc3ccco3)c3ccccc23)C(=O)N1CC
EC50 [2]: 11.1 µM (active) | EC50 [3]: 14.8 µM (active) | EC50 [4]: 13.9 µM (active)

CC1=NC(C)=C(C(=O)OCCNC(=O)c2ccccc2O)C(c2ccccc2[N+](=O)[O-])/C1=C(\O)OCC1CCCO1 (stereo unspecified)
EC50 [2]: 17 µM (active) | EC50 [3]: > 120 µM (not active) | AC50 (INS1): 40.6 µM (active) | EC50 [4]: 78.4 µM (active)

CCOC(=O)C1=C(C)N=c2s/c(=C/c3ccc(OCC(=O)O)cc3)c(=O)n2C1c1ccc(F)cc1 (stereo unspecified)
CC50 [1]: 39.8 µM (active)

C/C(=N\NC(=O)C12CCC(C)(C(=O)O1)C2(C)C)c1ccccc1O (stereo unspecified)
EC50 [2]: 13.1 µM (active) | EC50 [3]: 13.5 µM (active) | EC50 [4]: > 120 µM (not active)

Cc1ccc(/C=c2/sc3n(c2=O)CCCN=3)o1
EC50 (H4): 11.8 µM (active) | EC50 [6]: 161 nM (active)

C/N=C1\S/C(=C\c2ccc(N3CCOCC3)c(F)c2)C(=O)N1C
EC50 (Streptococcus): 12.2 µM (active) | EC50 (Streptokinase A): > 150 µM (not active) | EC50 [5]: 5.33 µM (active)

Reference: ChEMBL document CHEMBL1201862, “PubChem BioAssay data set” (2004)
